A melting point compilation (Tetko et al.; mined from patent text by program, amines drawn as free bases though some values may be those of a salt)

melting point [°C] | SMILES
184 | O=S1(=O)c2cccc3cccc(c23)N1CCN1CCC(Cc2c[nH]c3ccccc23)CC1
165 to 167 | Clc1ccc(-c2cc(C3CCN(CCCc4ccccc4)CC3)n[nH]2)cc1
64 to 66 | CCCCNC(=O)Oc1ccc(Oc2ccc(C)cc2)cc1
229 to 230 | COc1ccc(-c2c(C(=O)O)c3ccccc3n2C)cc1
156 to 157 | COc1ccc(-c2cc(COS(C)(=O)=O)c(=O)n(Cc3ccc(Cl)cc3)n2)cc1F
131 to 132 | CCOCc1nc2c(N)nc3cc(OCCOCc4ccccc4)ccc3c2n1CC(C)(C)O
76 | CC(C)(C)OC(=O)N1C(=O)C(C2=COc3ccccc3O2)=C(c2cn(C(=O)OC(C)(C)C)c3ccc(OCc4ccccc4)cc23)C1=O
67 to 68 | CC(C)n1nc(CC(=O)c2ccc(F)cc2)ccc1=O
178 to 180 | Cc1cc(C2(C3CC3)CC(c3ccc(Cl)cc3)=NO2)ccc1NC(=O)c1cccc(I)c1C(=O)NC(C)C (stereo unspecified)
164 to 165 | Oc1c2c(nn1-c1ccccn1)CCc1cc(Br)ccc1-2
99 to 102 | O=C(O)CC(Sc1ccccc1)c1ccc(Cl)cc1 (stereo unspecified)
137 to 138 | CCOC(=O)Cc1c(C)nc2c3cccc(Cl)c3ccn12
136 to 140 | Cn1c(=O)nc(-c2ccccc2)c2cc(Cl)sc21
259 to 261 | O=C(Cc1ccccc1)Nc1ncc(-c2ccc(O)cc2)nc1Cc1ccccc1
216 to 217 | CCCCc1nc2cccc(CC(=O)O)c2n1Cc1ccccc1Cl
189 to 190 | O=C(O)CCCC(=O)Nc1cccc(-c2ccnc3c(C(=O)c4cccs4)cnn23)c1
237 to 238 | CC(C)(C)OC(=O)Nc1cc(-c2nnc(SCc3cccc(F)c3)o2)ccn1
139 to 142 | COc1ccc2c(c1)CCC(C(=O)Cc1ccccc1)C2C#N (stereo unspecified)
> 250 | Cc1nc2ccc3ccc(CNc4ccc(C(=O)O)c(F)c4)cc3c2c(=O)[nH]1
120 to 123 | CSC1=C(c2ccc(O)cc2)C(=O)c2cc(O)cc(O)c21
116 | Fc1ccc(Cn2c(NC3CCN(CCN(Cc4ccccc4)Cc4ccccc4)CC3)nc3ccccc32)cc1
210 to 214 | O=C(c1ccccc1)C(O)C1OC(n2cc(F)c(=O)[nH]c2=O)C(O)(C(=O)c2ccccc2)C1(O)C(=O)c1ccccc1 (stereo unspecified)
215 to 217 | O=C(CCc1ccc([N+](=O)[O-])cc1)c1c(O)c2cccnc2n(-c2ccccc2)c1=O
188 to 190 | Cc1ccn(-c2ccc(C(=O)N3Cc4cccnc4N(C)c4ccccc43)c(C(F)(F)F)c2)n1
134 to 136 | C=C(C)C(=O)Nc1nc(CCC)n(Cc2ccc(-c3ccccc3-c3nnn[nH]3)cc2)c1C(=O)OCC
120 to 122 | CC(COc1c(-c2ccccc2)c(=O)oc2c(Cl)cccc12)CN1CCOCC1 (stereo unspecified)
222 to 226 | OC1=NN(c2cc(-c3ccnc(Nc4cccc(Cl)c4)n3)ccn2)CC1
134 to 137 | C=CCC(C(=O)O)(c1ccccc1)c1ccccc1
191 to 192 | CC1(C)C(=O)N(c2ccnc(NC(=O)NCc3ccccn3)c2)c2ccccc21
167 to 168 | Oc1cc(/C=C/c2ccccn2)n(-c2ccccc2)n1

The next lines start with the molecule.

SMILES | melting point [°C]
COc1cc(N2CCN(C)CC2)ccc1-c1cnn2c(N)c(-c3cccc(O)c3)cnc12 | 217 to 220
CC(CCC(=O)C(C)(C)O)C1CCC2C3=CC=C4CC(O)CCC4(C)C3CCC21C (stereo unspecified) | 150 to 152
CC12CCC(O)CC1=CCC1C2CCC2(C)C(n3ncnn3)=CCC12 (stereo unspecified) | 195 to 198
[N-]=[N+]=C(S(=O)(=O)C1CCCCC1)S(=O)(=O)C1CCCCC1 | 130 to 131
CCOC(=O)C1=C(C)NC2=C(C(=O)CCC2)C1c1nccn1C (stereo unspecified) | 271 to 272
NS(=O)(=O)c1ccc(-n2cnc3c(-c4ccc(C(F)(F)F)cc4F)ncnc32)cc1 | 244 to 245
CCCCCCCCCCCCCCc1ccc(C(=O)OC)cc1 | 28 to 29
Cc1n[nH]c2c1C(=O)CC(c1ccccc1Cl)C2 (stereo unspecified) | 168 to 170
FC(F)(F)c1ccc2nc(C3CCN(c4ncccc4Cl)CC3)[nH]c2c1 | 74
COC(=O)C=C1CCOc2ccc(Cl)cc21 | 113 to 115
Nc1c(Cl)cc(C(=O)O)c2c1CCO2 | 258
CCCCCCCCc1c(N)nc(-n2cccn2)nc1CC | 62 to 63
O=C(Cc1ncccn1)c1ccc(F)cc1F | 86 to 88
Cc1cc2c(cc1N(C)CC(C)C)N=C(c1cccc(-n3ncnc3CO)c1)CC(=O)N2 | 191
Cc1cc(C(N)=O)c2c(c1)C(C(Cl)(Cl)Cl)OC(C(Cl)(Cl)Cl)O2 (stereo unspecified) | 281 to 283
Cc1c(O)ccc(NC2=CC(=O)C(N)=CC2=O)c1C | 320
CCOC(=O)Cn1c2c(c3cc(Cl)c(Cl)cc31)CCN(C(=O)OC(C)(C)C)CC2 | 138 to 140
Cc1nc(C)c(C(=O)OCC2CCCO2)c(-c2cccc([N+](=O)[O-])c2)c1C(=O)OCC1CCCO1 (stereo unspecified) | 75 to 77
C#Cc1c2c3c(cccc3n1C)C1CC(NC(=O)N(CC)CC)CN(C)C1C2 (stereo unspecified) | 126
C#CC[C@]12CCC(=O)C=C1CC[C@@H]1[C@@H]2CC[C@]2(C)C(=O)CC[C@@H]12 | 174 to 175
CCCCCCCCCCCCN1CCN(CCCCCCNc2cc(OC)cc3c(C)ccnc23)CC1 | 53 to 55

SMILES | melting point [°C]
O=C(O)CCC#Cc1ccccc1Br | 87 to 91
CC(=O)Nc1cc2c(cc1[N+](=O)[O-])C(CC(C)C)C(=O)N2 (stereo unspecified) | 192 to 197
N#CC1C(=O)NC(=O)C(C#N)C12CCCCC2 (stereo unspecified) | 202 to 210
N#CN=C(Nc1ccncc1)NC1CCCCCCC1 | 198 to 199
CC(C(=O)O)C1CCCCC1 (stereo unspecified) | 63 to 64
COc1cc(OC(=O)C(C)C)c2c(=O)c(OC)c(-c3ccc(OC(=O)C(C)(C)C)c(OC)c3)oc2c1 | 151 to 152
Nc1sc(-c2ccco2)c(CN(C2CCCCC2)C2CCCCC2)c1C(=O)c1ccc(Cl)cc1 | 158 to 160
CCOC(=O)C1(CC(=O)O)N=C(c2ccc(Cl)cc2)c2c(sc(C)c2C)-n2c(C)nnc21 (stereo unspecified) | 198 to 202
CS(=O)c1ccc(C#N)cc1 (stereo unspecified) | 87 to 90
CCCCCC(=O)NC[C@@H]1CN2C(=O)C[C@H]2O1 (racemic) | 56 to 57
CCOC(=O)c1cn(-c2nc(NC(C)(C)C)c(F)cc2F)c2c(Br)c(F)c(F)cc2c1=O | 198 to 203
C[C@@H]1OCc2cc3c(nc21)N1[C@H](C3)CN(C(=O)OC(C)(C)C)C[C@H]1C | 143 to 144
CCCN(CCC)C(=O)c1n[nH]c2c(=O)[nH]c3cc(Cl)ccc3c(=O)c12 | 270
Nc1ccc(C(=O)c2cccnc2)cc1[N+](=O)[O-] | 229 to 230
CCOC(=O)Nn1cccc1 | 60 to 61
FC(F)(F)Oc1ccc(-c2ncc(Br)cn2)cc1 | 107 to 108
COC(=O)c1c(C)cc(O)c(Cl)c1O | 122 to 125
CC1CCC2(C)C(=CCC3C4CC(C)C(=O)C4(C)CCC32)C1 (stereo unspecified) | 109 to 110
COC(=O)Cc1cc(O)nn1C | 147 to 148
O=C(O)c1csc(Nc2ccc(C(F)(F)F)cc2)n1 | 255 to 259
